Legend:
[1] = 101 kPa, Liquid
[2] = refractive index (Na D-line) (dimensionless); conditions: 101.33 kPa, Liquid
[3] = refractive index (Na D-line) (dimensionless); xn = mol fraction of the nth substance listed; conditions: 101 kPa, Liquid
[4] = xn = mol fraction of the nth substance listed; conditions: 101 kPa, Liquid, x2 = 0

CCCCCCC [heptane]
Conditions	mass density, 303.15 K [kg/m3]	mass density, 308.15 K [kg/m3]	mass density, 313.15 K [kg/m3]	mass density, 318.15 K [kg/m3]	mass density, 323.15 K [kg/m3]	refractive index, 303.15 K	refractive index, 308.15 K	refractive index, 313.15 K	refractive index, 318.15 K	refractive index, 323.15 K
[1]	675.229	670.941	666.621	662.273	657.896	–	–	–	–	–
[2]	–	–	–	–	–	1.38259	1.37995	1.37731	1.37463	1.37197

CC(C)(C)O [2-methylpropan-2-ol]
Conditions	mass density, 303.15 K [kg/m3]	mass density, 308.15 K [kg/m3]	mass density, 313.15 K [kg/m3]	mass density, 318.15 K [kg/m3]	mass density, 323.15 K [kg/m3]	refractive index, 303.15 K	refractive index, 308.15 K	refractive index, 313.15 K	refractive index, 318.15 K	refractive index, 323.15 K
[1]	775.412	770.193	764.884	759.488	754.015	–	–	–	–	–
[2]	–	–	–	–	–	1.38222	1.37947	1.37667	1.37384	1.37097

NC1CCCCC1 [cyclohexylamine] + CCCCCCC
refractive index, [3]
Conditions	303.15 K	308.15 K	313.15 K	318.15 K	323.15 K
x1 = 0.0501	1.38508	1.38246	1.37983	1.37719	1.37451
x1 = 0.1002	1.38768	1.38507	1.38246	1.37983	1.37717
x1 = 0.1501	1.39038	1.38778	1.38516	1.38255	1.37991
x1 = 0.2305	1.39503	1.39245	1.38984	1.38719	1.38449
x1 = 0.3004	1.3993	1.39673	1.3941	1.39149	1.38874
x1 = 0.401	1.40584	1.40324	1.40059	1.39797	1.39527
x1 = 0.4497	1.40915	1.40655	1.40392	1.40129	1.39851
x1 = 0.5597	1.41708	1.41446	1.41182	1.40915	1.40647
x1 = 0.6001	1.42001	1.41739	1.41478	1.41215	1.40951
x1 = 0.6498	1.4238	1.4212	1.41859	1.41595	1.41327
x1 = 0.6994	1.42771	1.4251	1.42248	1.41981	1.41719
x1 = 0.7999	1.43588	1.43327	1.43065	1.428	1.42528
x1 = 0.8992	1.44452	1.44189	1.43928	1.43667	1.43405
x1 = 1	1.45375	1.45114	1.44856	1.44599	1.44336

CC(C)(C)O [2-methylpropan-2-ol] + NC1CCCCC1
[3], x1 = 1
Conditions	refractive index
303.15 K	1.38222
308.15 K	1.37947
313.15 K	1.37667
318.15 K	1.37384
323.15 K	1.37097

NC1CCCCC1 [cyclohexylamine]
[2]
Conditions	refractive index
303.15 K	1.45375
308.15 K	1.45114
313.15 K	1.44856
318.15 K	1.44599
323.15 K	1.44336

CCCCCCC [heptane] + CC(C)(C)O
[4]
Conditions	mass density [kg/m3]
303.15 K	675.229
308.15 K	670.941
313.15 K	666.621
318.15 K	662.273
323.15 K	657.896

[3], x2 = 0
Conditions	refractive index
303.15 K	1.38259
308.15 K	1.37995
313.15 K	1.37731
318.15 K	1.37463
323.15 K	1.37197

NC1CCCCC1 [cyclohexylamine] + CC(C)(C)O
refractive index, [3]
Conditions	303.15 K	308.15 K	313.15 K	318.15 K	323.15 K
x2 = 0	1.45375	1.45114	1.44856	1.44599	1.44336
x2 = 0.0508	1.45149	1.44888	1.44629	1.44368	1.44108
x2 = 0.1002	1.44914	1.44655	1.44395	1.44132	1.43876
x2 = 0.1502	1.44664	1.44404	1.44142	1.43884	1.43629
x2 = 0.2001	1.44406	1.44146	1.43888	1.4363	1.43371
x2 = 0.3005	1.43846	1.43586	1.43328	1.43068	1.42812
x2 = 0.3991	1.4325	1.42991	1.42732	1.42471	1.42218
x2 = 0.4996	1.42579	1.42321	1.42064	1.41804	1.41553
x2 = 0.5998	1.41855	1.41598	1.41339	1.41077	1.40818
x2 = 0.6997	1.41063	1.40805	1.40544	1.40284	1.40018
x2 = 0.7999	1.40191	1.39934	1.39676	1.39405	1.3914
x2 = 0.8712	1.39554	1.39281	1.39012	1.38734	1.38459
x2 = 0.8992	1.39261	1.38996	1.38723	1.3845	1.38176
x2 = 0.9504	1.38751	1.3848	1.38207	1.37923	1.37642

CCCCCCC [heptane] + NC1CCCCC1
[3], x2 = 0
Conditions	refractive index
303.15 K	1.38259
308.15 K	1.37995
313.15 K	1.37731
318.15 K	1.37463
323.15 K	1.37197

Reference: the NIST ThermoML archive (doi:10.1021/je100484n)
